Test results reported in ChEMBL document CHEMBL3232945 (Eur J Med Chem, 2014).

What was measured:
Rattus norvegicus [1] = test: Toxicity in anaesthetized-Wistar rat assessed as Q-T ECG interval at 40 mg/kg, ip after 60 mins (reference value: 79.7 +/- 0.965 ms); assay type: organism-based; design: dose 40 mg/kg, route intraperitoneal; conditions: in vivo, 1 h
Rattus norvegicus [2] = test: Toxicity in anesthetized-normotensive Wistar rat assessed as heart rate at 40 mg/kg, ip after 30 mins (reference value: 317.68 +/- 7.631 bpm); assay type: organism-based; design: dose 40 mg/kg, route intraperitoneal; conditions: in vivo, 0.5 h
Rattus norvegicus [3] = test: Antiarrhythmic activity in barium chloride-induced Wistar rat assessed as increase in appearance time of arrhythmia at 40 mg/kg, ip administered 60 mins before barium chloride challenge (reference value: 129.4 +/- 4.373 sec); assay type: functional, Heart; conditions: route intraperitoneal
Rattus norvegicus [4] = test: Toxicity in anesthetized-normotensive Wistar rat assessed as heart rate at 40 mg/kg, ip after 45 mins (reference value: 316.82 +/- 8.452 bpm); assay type: organism-based; design: dose 40 mg/kg, route intraperitoneal; conditions: in vivo, 0.75 h
Rattus norvegicus [5] = test: Toxicity in anaesthetized-Wistar rat assessed as Q-T ECG interval at 40 mg/kg, ip measured immediately at 0 min (reference value: 78.8 +/- 1.030 ms); assay type: organism-based; design: dose 40 mg/kg, route intraperitoneal; conditions: in vivo, 0 h
Rattus norvegicus [6] = test: Toxicity in […] normotensive Wistar rat assessed as mean arterial pressure at 40 mg/kg, ip after 60 mins (reference value: 95.07 +/- 1.973 mmHg); assay type: organism-based, Artery; design: dose 40 mg/kg, route intraperitoneal; conditions: in vivo, 1 h
Rattus norvegicus [7] = test: Toxicity in anesthetized-normotensive Wistar rat assessed as heart rate at 40 mg/kg, ip measured immediately at 0 min (reference value: 316.62 +/- 9.643 bpm); assay type: organism-based; design: dose 40 mg/kg, route intraperitoneal; conditions: in vivo, 0 h
Rattus norvegicus [8] = test: Toxicity in […] normotensive Wistar rat assessed as mean arterial pressure at 40 mg/kg, ip after 45 mins (reference value: 94.83 +/- 0.943 mmHg); assay type: organism-based, Artery; design: dose 40 mg/kg, route intraperitoneal; conditions: in vivo, 0.75 h
Rattus norvegicus [9] = test: Toxicity in anaesthetized-Wistar rat assessed as QRS ECG interval at 40 mg/kg, ip after 30 mins (reference value: 19.9 +/- 1.393 ms); assay type: organism-based; design: dose 40 mg/kg, route intraperitoneal; conditions: in vivo, 0.5 h
Rattus norvegicus [10] = test: Toxicity in anaesthetized-Wistar rat assessed as P-Q ECG interval at 40 mg/kg, ip after 45 mins (reference value: 52.5 +/- 0.780 ms); assay type: organism-based; design: dose 40 mg/kg, route intraperitoneal; conditions: in vivo, 0.75 h
Rattus norvegicus [11] = test: Toxicity in […] normotensive Wistar rat assessed as mean arterial pressure at 40 mg/kg, ip measured immediately at 0 min (reference value: 94.21 +/- 2.065 mmHg); assay type: organism-based, Artery; design: dose 40 mg/kg, route intraperitoneal; conditions: in vivo, 0 h
Rattus norvegicus [12] = test: Antiarrhythmic activity in barium chloride-induced Wistar rat assessed as increase in mortality time at 40 mg/kg, ip administered 60 mins before barium chloride challenge (reference value: 682.8 +/- 9.656 secs); assay type: functional, Heart; conditions: route intraperitoneal
Rattus norvegicus [13] = test: Toxicity in anesthetized-normotensive Wistar rat assessed as heart rate at 40 mg/kg, ip after 60 mins (reference value: 314.96 +/- 9.442 bpm); assay type: organism-based; design: dose 40 mg/kg, route intraperitoneal; conditions: in vivo, 1 h
Rattus norvegicus [14] = test: Antihypertensive activity in Wistar rat assessed as mean arterial pressure at 40 mg/kg, ip after 30 mins (reference value: 194.72 +/- 1.002 mmHg); assay type: functional, Artery; conditions: route intraperitoneal
Rattus norvegicus [15] = test: Toxicity in […] normotensive Wistar rat assessed as mean arterial pressure at 40 mg/kg, ip after 30 mins (reference value: 94.68 +/- 1.213 mmHg); assay type: organism-based, Artery; design: dose 40 mg/kg, route intraperitoneal; conditions: in vivo, 0.5 h
Rattus norvegicus [16] = test: Toxicity in anaesthetized-Wistar rat assessed as QRS ECG interval at 40 mg/kg, ip after 45 mins (reference value: 20.2 +/- 1.348 ms); assay type: organism-based; design: dose 40 mg/kg, route intraperitoneal; conditions: in vivo, 0.75 h
Rattus norvegicus [17] = test: Toxicity in anaesthetized-Wistar rat assessed as QRS ECG interval at 40 mg/kg, ip after 60 mins (reference value: 19.3 +/- 0.873 ms); assay type: organism-based; design: dose 40 mg/kg, route intraperitoneal; conditions: in vivo, 1 h
Rattus norvegicus [18] = test: Toxicity in anaesthetized-Wistar rat assessed as QRS ECG interval at 40 mg/kg, ip after 15 mins (reference value: 18.9 +/- 1.563 ms); assay type: organism-based; design: dose 40 mg/kg, route intraperitoneal; conditions: in vivo, 0.25 h
Rattus norvegicus [19] = test: Toxicity in anaesthetized-Wistar rat assessed as QRS ECG interval at 40 mg/kg, ip measured immediately at 0 min (reference value: 19.6 +/- 1.142 ms); assay type: organism-based; design: dose 40 mg/kg, route intraperitoneal; conditions: in vivo, 0 h
Rattus norvegicus [20] = test: Toxicity in anaesthetized-Wistar rat assessed as P-Q ECG interval at 40 mg/kg, ip after 30 mins (reference value: […] +/- 0.927 ms); assay type: organism-based; design: dose 40 mg/kg, route intraperitoneal; conditions: in vivo, 0.5 h
Rattus norvegicus [21] = test: Toxicity in anaesthetized-Wistar rat assessed as Q-T ECG interval at 40 mg/kg, ip after 30 mins (reference value: 78.3 +/- 0.860 ms); assay type: organism-based; design: dose 40 mg/kg, route intraperitoneal; conditions: in vivo, 0.5 h
Rattus norvegicus [22] = test: Toxicity in anaesthetized-Wistar rat assessed as P-Q ECG interval at 40 mg/kg, ip measured immediately at 0 min (reference value: 52.4 +/- 0.927 ms); assay type: organism-based; design: dose 40 mg/kg, route intraperitoneal; conditions: in vivo, 0 h
Rattus norvegicus [23] = test: Antihypertensive activity in Wistar rat assessed as mean arterial pressure at 40 mg/kg, ip after 45 mins (reference value: 193.96 +/- 0.865 mmHg); assay type: functional, Artery; conditions: route intraperitoneal
Rattus norvegicus [24] = test: Toxicity in anaesthetized-Wistar rat assessed as P-Q ECG interval at 40 mg/kg, ip after 15 mins (reference value: 52.2 +/- 1.158 ms); assay type: organism-based; design: dose 40 mg/kg, route intraperitoneal; conditions: in vivo, 0.25 h
Rattus norvegicus [25] = test: Antihypertensive activity in Wistar rat assessed as mean arterial pressure at 40 mg/kg, ip measured immediately at 0 min (reference value: 194.08 +/- 1.962 mmHg); assay type: functional, Artery; conditions: route intraperitoneal
Rattus norvegicus [26] = test: Toxicity in […] normotensive Wistar rat assessed as mean arterial pressure at 40 mg/kg, ip after 15 mins (reference value: 93.81 +/- 1.543 mmHg); assay type: organism-based, Artery; design: dose 40 mg/kg, route intraperitoneal; conditions: in vivo, 0.25 h
Rattus norvegicus [27] = test: Antihypertensive activity in Wistar rat assessed as mean arterial pressure at 40 mg/kg, ip after 60 mins (reference value: 195.11 +/- 0.531 mmHg); assay type: functional, Artery; conditions: route intraperitoneal
Rattus norvegicus [28] = test: Toxicity in anaesthetized-Wistar rat assessed as Q-T ECG interval at 40 mg/kg, ip after 45 mins (reference value: 78.8 +/- 0.927 ms); assay type: organism-based; design: dose 40 mg/kg, route intraperitoneal; conditions: in vivo, 0.75 h
Rattus norvegicus [29] = test: Antihypertensive activity in Wistar rat assessed as mean arterial pressure at 40 mg/kg, ip after 15 mins (reference value: 195.68 +/- 1.623 mmHg); assay type: functional, Artery; conditions: route intraperitoneal
Rattus norvegicus [30] = test: Toxicity in anaesthetized-Wistar rat assessed as P-Q ECG interval at 40 mg/kg, ip after 60 mins (reference value: […] +/- 0.924 ms); assay type: organism-based; design: dose 40 mg/kg, route intraperitoneal; conditions: in vivo, 1 h
Rattus norvegicus [31] = test: Toxicity in anesthetized-normotensive Wistar rat assessed as heart rate at 40 mg/kg, ip after 15 mins (reference value: 313.93 +/- 9.912 bpm); assay type: organism-based; design: dose 40 mg/kg, route intraperitoneal; conditions: in vivo, 0.25 h
Rattus norvegicus [32] = test: Toxicity in anaesthetized-Wistar rat assessed as Q-T ECG interval at 40 mg/kg, ip after 15 mins (reference value: 79.4 +/- 1.270 ms); assay type: organism-based; design: dose 40 mg/kg, route intraperitoneal; conditions: in vivo, 0.25 h

SMILES	Activity (Rattus norvegicus [1]) [ms]	Activity (Rattus norvegicus [2]) [bpm]	Time (Rattus norvegicus [3]) [s]	Activity (Rattus norvegicus [4]) [bpm]	Activity (Rattus norvegicus [5]) [min]	Activity (Rattus norvegicus [6]) [mmHg]	Activity (Rattus norvegicus [7]) [bpm]	Activity (Rattus norvegicus [8]) [mmHg]	Activity (Rattus norvegicus [9]) [ms]	Activity (Rattus norvegicus [10]) [min]	Activity (Rattus norvegicus [11]) [mmHg]	Time (Rattus norvegicus [12]) [s]	Activity (Rattus norvegicus [13]) [bpm]	Activity (Rattus norvegicus [14]) [mmHg]	Activity (Rattus norvegicus [15]) [mmHg]	Activity (Rattus norvegicus [16]) [min]	Activity (Rattus norvegicus [17]) [min]	Activity (Rattus norvegicus [18]) [min]	Activity (Rattus norvegicus [19]) [min]	Activity (Rattus norvegicus [20]) [min]	also measured
O=C1/C(=C\c2ccccc2)S/C(=N\c2ccccc2)N1CC(O)CN1CCN(c2ccccc2)CC1 (centres undefined)	75	295.41	285.4	287.25	73.5	83.55	318.34	79.26	23.5	53.9	94.56	964.4	301.92	146.27	76.84	24.1	24.7	22.2	21.8	53.3	Activity (Rattus norvegicus [21]): 74.2 min; Activity (Rattus norvegicus [22]): 52.4 ms; Activity (Rattus norvegicus [23]): 156.09 mmHg; Activity (Rattus norvegicus [24]): 52.7 min; Activity (Rattus norvegicus [25]): 194.87 mmHg; Activity (Rattus norvegicus [26]): 86.43 mmHg; Activity (Rattus norvegicus [27]): 182.32 mmHg; Activity (Rattus norvegicus [28]): 74.9 min; Activity (Rattus norvegicus [29]): 180.43 mmHg; Activity (Rattus norvegicus [30]): 54.2 min; Activity (Rattus norvegicus [31]): 309.46 bpm; Activity (Rattus norvegicus [32]): 73.9 min
O=C1/C(=C\c2ccccc2)S/C(=N\c2ccccc2)N1CC(O)CN1CCNCC1 (centres undefined)	82.1	259.31	379.7	269.73	80.2	70.27	302.12	62.53	23.8	56.9	92.33	1380.5	298.12	153.16	62.26	23.7	22.4	21.6	20.8	56.4	Activity (Rattus norvegicus [21]): 81.8 min; Activity (Rattus norvegicus [22]): 54.3 ms; Activity (Rattus norvegicus [23]): 128.32 mmHg; Activity (Rattus norvegicus [24]): 54.7 min; Activity (Rattus norvegicus [25]): 196.63 mmHg; Activity (Rattus norvegicus [26]): 78.76 mmHg; Activity (Rattus norvegicus [27]): 159.08 mmHg; Activity (Rattus norvegicus [28]): 82.4 min; Activity (Rattus norvegicus [29]): 176.65 mmHg; Activity (Rattus norvegicus [30]): 55.1 min; Activity (Rattus norvegicus [31]): 292.46 bpm; Activity (Rattus norvegicus [32]): 80.6 min
